This is an account of results in patent publication US6426355B1, “Heterocyclic carboxamide-containing thiourea inhibitors of herpes viruses containing phenylenediamine group” (American Home Products, priority 1998, dated 2002).

Each structure is given as a SMILES string. Values after ≈ are worked out from the molar mass of the structure shown.

Assay [1] relates to HSV-1. Put plainly: HSV Antiviral (ELISA) assay. The class given is cell-based. As to conditions: Human alphaherpesvirus 1, HSV-1 in Vero cells, read-out: IC50 (ug/ml) HSV. The procedure, abridged:
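Replication measured as glycoprotein D signal in fixed cells: anti-gD antibody plus β-galactosidase-linked secondary, fluorogenic substrate read at 365/450 nm. Vero cells (2% FBS DMEM) received compound 30 min pre-infection, HSV-1 MOI 0.006, ~24 h incubation; IC50 relative to no-compound fluorescence.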
A general note: In an ELISA, binding on a coated surface is turned into a signal by an enzyme label.

In assay [2] the test system is HCMV recombinant mutant virus (RV145). Put plainly: HCMV microtiter plate assay (beta-glucuronidase reporter). The class given is cell-based, Human Cytomegalovirus. As to conditions: Human betaherpesvirus 5, Fibroblast, read-out: IC50 (ug/ml) HCMV. Put shortly: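 Replication was read out as virus-encoded β-glucuronidase activity, measured with a chromogenic or fluorogenic glucuronide substrate in cell lysates at 96 h post-infection. Infection of human foreskin fibroblasts with RV145 took place with compound present. IC50 was derived from a range of inhibitor amounts.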

The test system of assay [3] is VZV strain Ellen. Put plainly: VZV Antiviral (ELISA) assay. The class given is cell-based. As to conditions: for IC50: Human alphaherpesvirus 3, VZV strain Ellen in HFF cells, read-out: IC50 (ug/ml) VZV; for inhibition at 10 µg/mL: Human alphaherpesvirus 3, read-out: % inhibition 10 ug/ml VZV, at 10 ug/ml, VZV strain Ellen in HFF cells. Put shortly:
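First, fibroblasts are infected at multiplicity below 0.1 and kept overnight. The harvested cell mixture then goes onto compound-containing wells for three days at 37° C. Finally, cells are fixed and viral gpII is measured by fluorogenic ELISA.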

As for `CC(=O)Nc1ccc(NC(=S)Nc2ccc(C)c(Cl)c2)cc1` [Example 939, N-{4-[3-(3-Chloro-4-methyl-phenyl)-thioureido]-phenyl} -acetamide], the IC50 is more than 10 µg/mL in assay [1], 0.018 µg/mL (≈ 0.0539 µM) in assay [2] and 15 µg/mL (≈ 44.9 µM) in assay [3]. Further, the inhibition at 10 µg/mL in assay [3] was 53%.

Turning to `O=C(Nc1ccc(NC(=S)Nc2ccc(C(F)(F)F)c(Cl)c2)cc1)c1csnn1` [Example 960, [1,2,3]Thiadiazole-4-carboxylic acid {4-[3-(3-chloro-4-trifluoromethyl-phenyl)-thioureido]-phenyl}-amide], the IC50 was more than 10 µg/mL in assay [1], 0.03 µg/mL (≈ 0.0655 µM) in assay [2] and more than 10 µg/mL in assay [3]. Also, the inhibition at 10 µg/mL in assay [3] was 58%.

For the compound `O=C(Nc1ccc(NC(=S)Nc2ccc(C(F)(F)F)c(Cl)c2)cc1)c1ccccc1F` [Example 961, N-{4-[3-(3-Chloro-4-trifluoromethyl-phenyl)-thioureido]-phenyl} -2-fluoro-benzamide], the IC50 in assay [1] is more than 10 µg/mL; in assay [2], 0.006 µg/mL (≈ 0.0128 µM). Moreover, the inhibition at 10 µg/mL in assay [3] was 20%.

For the compound `O=C(Nc1ccc(NC(=S)Nc2ccc(Cl)c(Cl)c2)cc1)c1csnn1` [Example 964, [1,2,3]Thiadiazole-4-carboxylic acid {4-[3-(3,4-dichloro-phenyl)-thioureido]-phenyl}-amide], the IC50 in assay [1] was more than 10 µg/mL; in assay [2], 0.03 µg/mL (≈ 0.0707 µM); in assay [3], more than 10 µg/mL. In assay [3], the inhibition at 10 µg/mL was found to be 9%.

For the compound `O=C(Nc1ccc(NC(=S)Nc2ccc(Br)c(Cl)c2)cc1)c1ccccc1F` [Example 965, N-{4-[3-(4-Bromo-3-chloro-phenyl)-thioureido]-phenyl} -2-fluoro-benzamide], the IC50 was more than 10 µg/mL in assay [1] and 0.008 µg/mL (≈ 0.0167 µM) in assay [2]. For the same compound, the inhibition at 10 µg/mL in assay [3] worked out at 36%.

Consider `O=C(Nc1ccc(NC(=S)Nc2ccc(I)c(Cl)c2)cc1)c1ccccc1F` [Example 966, N-{4-[3-(3-Chloro-4-iodo-phenyl)-thioureido]-phenyl} -2-fluoro-benzamide], for which the IC50 in assay [1] is more than 10 µg/mL; in assay [2], 0.02 µg/mL (≈ 0.038 µM). For the same compound, the inhibition at 10 µg/mL in assay [3] was determined as 42%.

With `O=C(Nc1ccc(NC(=S)Nc2ccc(F)c(Cl)c2)cc1)c1ccco1` [Example 969, Furan-2-carboxylic acid {4-[3-(3-chloro-4-fluoro-phenyl)-thioureido]-phenyl}-amide], the figures for the IC50 in assay [1], in assay [2] and in assay [3] were more than 10 µg/mL, 0.03 µg/mL (≈ 0.077 µM) and more than 10 µg/mL, respectively. Further, the inhibition at 10 µg/mL in assay [3] amounted to 40%.

On to `O=C(Nc1ccc(NC(=S)Nc2ccc(Br)c(Cl)c2)cc1)c1csnn1` [Example 970, [1,2,3]Thiadiazole-4-carboxylic acid {4-[3-(4-bromo-3-chloro-phenyl)-thioureido]-phenyl}-amide], for which the IC50 in assay [1] was more than 10 µg/mL; in assay [2], 0.06 µg/mL (≈ 0.128 µM); in assay [3], more than 10 µg/mL. Further, the inhibition at 10 µg/mL in assay [3] is 16%.

Consider `O=C(Nc1ccc(NC(=S)Nc2ccc(I)c(Cl)c2)cc1)c1csnn1` [Example 971, [1,2,3]Thiadiazole-4-carboxylic acid {4-[3-(3-chloro-4-iodo-phenyl)-thioureido]-phenyl} -amide], for which the IC50 was more than 10 µg/mL in assay [1], 0.013 µg/mL (≈ 0.0252 µM) in assay [2] and more than 10 µg/mL in assay [3]. The inhibition at 10 µg/mL in assay [3] was found to be 9%.

For `O=C(Nc1ccc(NC(=S)Nc2ccc(F)c(Cl)c2)cc1)c1ccccc1F` [Example 972, N-{4-[3-(3-Chloro-4-fluoro-phenyl)-thioureido]-phenyl} -2-fluoro-benzamide], the IC50 is more than 10 µg/mL in assay [1], 0.006 µg/mL (≈ 0.0144 µM) in assay [2] and more than 15 µg/mL in assay [3]. The inhibition at 10 µg/mL in assay [3] amounted to 95%.

Take `O=C(Nc1ccc(NC(=S)Nc2cccc(Cl)c2Cl)cc1)c1csnn1` [Example 979, [1,2,3]Thiadiazole-4-carboxylic acid {4-[3-(2,3-dichloro-phenyl)-thioureido]-phenyl} -amide]: the IC50 in assay [1] amounted to 8 µg/mL (≈ 18.9 µM); in assay [2], 0.19 µg/mL (≈ 0.448 µM); in assay [3] it was 12 µg/mL (≈ 28.3 µM). The inhibition at 10 µg/mL in assay [3] came out at 88%.

In the case of `CC(=O)Nc1ccc(NC(=S)Nc2cc(Cl)ccc2Cl)cc1` [Example 980, N-{4-[3-(2,5-Dichloro-phenyl)-thioureido]-phenyl} -acetamide], the IC50 in assay [1] is more than 10 µg/mL; in assay [2], 0.05 µg/mL (≈ 0.141 µM). Also, the inhibition at 10 µg/mL in assay [3] worked out at 56%.

On to `CC(=O)Nc1ccc(NC(=S)Nc2cc(Cl)c(Cl)c(Cl)c2)cc1` [Example 986, N-{4-[3-(3,4,5-Trichloro-phenyl)-thioureido]-phenyl}-acetamide], for which the IC50 in assay [1] is more than 10 µg/mL; in assay [2] it was 0.031 µg/mL (≈ 0.0798 µM). The inhibition at 10 µg/mL in assay [3] stood at 5%.

For the compound `O=C(Nc1ccc(NC(=S)Nc2cc(Cl)c(Cl)c(Cl)c2)cc1)c1csnn1` [Example 989, [1,2,3]Thiadiazole-4-carboxylic acid {4-[3-(3,4,5-trichloro-phenyl)-thioureido]-phenyl}-amide], the IC50 in assay [1] was more than 10 µg/mL; in assay [2] it was 0.016 µg/mL (≈ 0.0349 µM); in assay [3] it was more than 10 µg/mL. Further, in assay [3], the inhibition at 10 µg/mL was determined as 21%.

As for `O=C(Nc1ccc(NC(=S)Nc2ccc(-c3cc[nH]n3)c(Cl)c2)cc1)c1csnn1` [Example 991, [1,2,3]Thiadiazole-4-carboxylic acid (4-{3-[3-chloro-4-(1H-pyrazol-3-yl)-phenyl]-thioureido}-phenyl)-amide], the IC50 was more than 10 µg/mL in assay [1], 0.022 µg/mL (≈ 0.0483 µM) in assay [2] and more than 10 µg/mL in assay [3]. For the same compound, in assay [3], the inhibition at 10 µg/mL stood at 3%.

Take `O=C(Nc1ccc(NC(=S)Nc2cccc(Cl)c2)cc1)c1csnn1` [Example 992, [1,2,3]Thiadiazole-4-carboxylic acid {4-[3-(3-chloro-phenyl)-thioureido]-phenyl}-amide]: the figures for the IC50 in assay [1], in assay [2] and in assay [3] were more than 10 µg/mL, 0.018 µg/mL (≈ 0.0462 µM) and more than 10 µg/mL, respectively. In addition, the inhibition at 10 µg/mL in assay [3] is 29%.

`O=C(Nc1ccc(NC(=S)Nc2cccc(Cl)c2)cc1)c1ccco1` [Example 993, Furan-2-carboxylic acid {4-[3-(3-chloro-phenyl)-thioureido]-phenyl}-amide]: the IC50 is more than 10 µg/mL in assay [1], 0.013 µg/mL (≈ 0.035 µM) in assay [2] and more than 10 µg/mL in assay [3].

In the case of `O=C(Nc1ccc(NC(=S)Nc2cccc(Cl)c2)cc1)c1ccccc1F` [Example 994, N-{4-[3-(3-Chloro-phenyl)-thioureido]-phenyl}-2-fluoro-benzamide], the results for the IC50 in assay [1], in assay [2] and in assay [3] were more than 10 µg/mL, 0.07 µg/mL (≈ 0.175 µM) and more than 10 µg/mL, respectively.

`O=C(Nc1ccc(NC(=S)Nc2ccc(Cl)cc2)cc1)c1ccccc1F` [Example 996, N-{4-[3-(4-Chloro-phenyl)-thioureido]-phenyl}-2-fluoro-benzamide]: the IC50 in assay [1] is 10 µg/mL (≈ 25 µM); in assay [2], 0.15 µg/mL (≈ 0.375 µM); in assay [3] it was more than 10 µg/mL.

Take `NC(=O)c1cccc(NC(=S)Nc2ccc(NC(=O)c3ccco3)cc2)c1` [Example 1004, Furan-2-carboxylic acid {4-[3-(3-carbamoyl-phenyl)-thioureido]-phenyl} -amide]: the IC50 in assay [1] was more than 10 µg/mL; in assay [2] it was 0.5 µg/mL (≈ 1.31 µM); in assay [3] it was more than 10 µg/mL. In assay [3], the inhibition at 10 µg/mL worked out at 36%.

With `NC(=O)c1cccc(NC(=S)Nc2ccc(NC(=O)c3csnn3)cc2)c1` [Example 1005, [1,2,3]Thiadiazole-4-carboxylic acid {4-[3-(3-carbamoyl-phenyl)-thioureido]-phenyl}-amide], the IC50 in assay [1] was more than 10 µg/mL; in assay [2], 2 µg/mL (≈ 5.02 µM); in assay [3] it was more than 10 µg/mL. Further, in assay [3], the inhibition at 10 µg/mL was found to be 16%.

Take `O=C(Nc1ccc(NC(=S)Nc2ccccc2Cl)cc1)c1csnn1` [Example 1006, [1,2,3]Thiadiazole-4-carboxylic acid {4-[3-(2-chloro-phenyl)-thioureido]-phenyl}-amide]: the values for the IC50 in assay [1], in assay [2] and in assay [3] were more than 10 µg/mL, 0.2 µg/mL (≈ 0.513 µM) and more than 10 µg/mL, respectively. For the same compound, in assay [3], the inhibition at 10 µg/mL came to 13%.

In the case of `O=C(Nc1ccc(NC(=S)Nc2cccc(F)c2)cc1)c1ccco1` [Example 1007, Furan-2-carboxylic acid {4-[3-(3-fluoro-phenyl)-thioureido]-phenyl} -amide], the IC50 is more than 10 µg/mL in assay [1], 0.11 µg/mL (≈ 0.31 µM) in assay [2] and more than 10 µg/mL in assay [3]. Besides, in assay [3], the inhibition at 10 µg/mL was determined as 18%.

With `O=C(Nc1ccc(NC(=S)Nc2cccc([N+](=O)[O-])c2)cc1)c1ccco1` [Example 1008, Furan-2-carboxylic acid {4-[3-(3-nitro-phenyl)-thioureido]-phenyl} -amide], the IC50 in assay [1] is more than 10 µg/mL; in assay [2], 0.12 µg/mL (≈ 0.314 µM); in assay [3] it was more than 10 µg/mL. Also, in assay [3], the inhibition at 10 µg/mL was found to be 15%.

Consider `O=C(Nc1ccc(NC(=S)Nc2cccc([N+](=O)[O-])c2)cc1)c1ccccc1F` [Example 1009, 2-Fluoro-N-{4-[3-(3-nitro-phenyl)-thioureido]-phenyl} -benzamide], for which the values for the IC50 in assay [1] and in assay [2] were 10 µg/mL (≈ 24.4 µM) and 0.2 µg/mL (≈ 0.487 µM), respectively. The inhibition at 10 µg/mL in assay [3] turned out to be 22%.
